Reference: patent publication US9938320B2, “Peptides for promoting angiogenesis and use thereof” (INDUSTRY-ACADEMIC COOPERATION FOUNDATION, SOOKMYUNG WOMEN'S …, priority 2010, dated 2018)

Tests used:
[1] = tested on: human umbilical vein endothelial cells (HUVECs); experiment: Proliferation of HUVECs (CyQUANT kit); assay type: cell-based; conditions: 48 hours with peptide, negative control (untreated) = 100
Experimental: In order to investigate the effect of the 4 peptides prepared in Example 1 on blood vessel formation, human umbilical vein endothelial cells (HUVECs) were treated with the peptide of the present invention and their proliferation was observed.
HUVECs were cultured in endothelial cell basal medium-2 (EBM-2, Clonetics Co., San Diego, USA) containing 2% fetal bovine serum (FBS). The cultured HUVECs were transferred to a 96-well plate, with 1000 cells per each well. After culturing for 24 hours followed by addition of the 4 peptides of the peptide of the present invention to each well, they were further cultured for 48 hours. The cells treated with VEGF instead of the peptide of the present invention and those treated with nothing were cultured under the same condition, as positive control group and negative control group, respectively. Upon completion of the culturing, the degree of cell proliferation was measured using the CyQUANT kit (Invitrogen, USA).

HUVECs = experiment: Migration of HUVECs through polycarbonate filter chamber; assay type: cell-based, human; conditions: 37° C. for 10 hours, negative control (untreated) = 100
Experimental: In order to investigate the effect of the 4 peptides prepared in Example 1 on blood vessel formation, migration of HUVECs was measured.
The bottom portion of a chamber of a 24-well plate (Corning Costar, USA) having a polycarbonate filter with pores therebelow was coated with 0.5 mg/mL collagen type 1 ([…]). After adding EBM-2 containing the 4 peptides of the peptide of the present invention to the bottom portion of the chamber, HUVECs were inoculated at the upper portion of the chamber, with 1×10^5 cells per well. After incubation at 37° C. for 10 hours, the cells that had passed through the polycarbonate filter were fixed with methanol, stained with hematoxylin, and counted under a microscope.

Substance	Cell proliferation (%) [1] [%]	Cell migration (%) (HUVECs)
NQES (Pep_10 Artificial Peptide for Promotion of Angiogenesis)	146.5	173.2
PKES (Pep_9 Artificial Peptide for Promotion of Angiogenesis)	212.5	156.4
SDRGA (Pep_8 Artificial Peptide for Promotion of Angiogenesis)	209.2	147.0
SEGQK (Pep_7 Artificial Peptide for Promotion of Angiogenesis)	203.3	155.4
VEGF	166.0	146.3
